Laboratory results reported in patent US7414068B2, “Benzopyran derivatives substituted with secondary amines including tetrazole, method for the preparation thereof and pharmaceutical compositions containing them” (Dongbu Hannong Chemical Co., Ltd., priority 2002, dated 2008).

Columns and labels:
RAW 264.7 cells = assay: Inhibitory effect on NO production (LPS, Griess reagent); assay type: cell-based, murine; conditions: Mus musculus, RAW264.7, 24 h, Addition 30 μM, LPS 1 μg/ml, read-out: Inihibition (%) of NO production
Method: Using RPMI1640 media supplemented with 10% fetal bovine serum (FBS), RAW 264.7 cells (obtained from American Type Culture Collection), a murine macrophage cell line, were cultured at 37° C. in a 5% CO2 incubator. The RAW 264.7 cells were harvested and cell density was adjusted to 5×10^5 cell/ml with a RPMI media supplemented with 0.5% FBS and plated at 5×10^4 cell/well to 96-well plate, which were then cultured for 20 hours in a CO2 incubator. After removal of the media, the cells were pre-treated for 1 hour with fresh media containing 30 μM. The test compounds were dissolved in DMSO and diluted to respective concentration in the media. In order to minimize DMSO effect on the nitric oxide formation by the RAW 264.7 cells in the walls, the media were allowed to contain DMSO at a concentration of 0.1% or less.
After completion of one-hour pre-treatment, Lipopolysaccharide (E. coli serotype 055:B5) was added to activate the cells at a final concentration of 1 μg/ml, which were maintained for 24 hours in a CO2 incubator. As a result of the activation of RAW 264.7 cells with LPS, NO was formed. The NO release into the media was in a form of nitrite (NO2^−) and quantitatively measured using the Griess reagent. A control group was treated only with vehicle instead of test compounds.
The inhibitory effect of the test compounds against NO production were determined as the reduction of NO quantity compared with that of the control group.

[1] = tested on: isolated ischemic rat heart; assay: Cardioprotective effect in ischemic heart models of rats (Langendorff); conditions: 10 μM; for EDP (mmHg): after 30 min global ischemia and reperfusion; for LDH (u/g): reperfusion LDH release; for LVDP X HR (%): reperfusion, % of pre-treatment DP; for TTC: time to contracture during global ischemia
Method: Male rats (300˜450 g, obtained form the experimental animal team of the Korea Research Institute of Chemical Technology) were anaesthetized by the intra-peritoneal injection of sodium pentobarbital at a dose of 100 mg/kg. Heparin (1,000 U/kg) was injected to the tail vein and then the heart was enucleated. Particularly, cannula (PE 240) was inserted to the organ. Rats were mechanically ventilated with a rodent ventilator, in situ aorta cannula was inserted into their aorta. In retorograde perfusion, their hearts were enucleated, then just hung onto Langendorff Apparatus. Tissue attached at the heart was removed. Heart was perfused in oxygenated modified Krebs-Henseleit bicarbonate buffer (composition<mM/L>116 NaCl, 4.7 KCl, 1.1 MgSO4, 1.17 KH2PO4, 24.9 NaHCO3, 2.52 CaCl2, 8.32 Glucose, 2.0 Pyruvate) at a constant perfusion pressure (85 mmHg). A metal cannula attached to latex balloon filled with solvent (ethanol: water=1:1 (v/v)) was placed in the left ventricle through pulmonary vein and connected to a isovolumetric pressure transducer (H.S.E., Germany) for measurement of left ventricular pressure (LVP). The hearts were allowed to equilibrate for 15 min, at which time left ventricular end-diastolic pressure (EDP) was adjusted to 5 mmHg and this balloon volume was maintained throughout the experiment.
Baseline cardiac contractile function, heart rate (HR), and coronary flow (CF) were measured. Cardiac contractile function was calculated by […], yielding LVDP (left ventricular developed pressure). Double product RPP (rate-pressure product) (DP), another important parameter for indirectly assessing cardiac performance in Langendorff heart impossible to measure cardiac output was calculated by multiplying HR by LVDP.
Throughout the experiment, total coronary blood flow was measured by the use of coronary flow probe (diameter: 1.0 mm) installed in aortic cannula with electromagnetic flowmeter. Temperature of heart was steadily maintained by immersing the heart at 37° C. in physiological saline solution to which 95% O2/5% CO2 was constantly supplied. After stabilization for 15 min, the hearts were pre-treated for 10 min in vehicle (0.04% DMSO) or mixture containing the compound of the present invention or control material. Thereafter, cardiac contractile function, HR and CF were repeatedly measured. Global ischemia was induced by completely shutting off the perfusate for 30 min. Severity of ischemia was determined as the time to contracture (TTC, min) during global ischemia in which the first 5 mmHg increase in EDP was observed. Then, the hearts were reperfused and, 30 min later, contractile functions (LVDP, HR and CF) was repeatedly measured. After reperfusion was accomplished for 30 min, LDH (lactate dehydrogenase) was measured as a sensitive index for loss of cell viability with a kit.

[2] = Acute oral toxicity test in rats; conditions: SD, rat, in vivo, single oral dose, suspended in 0.5% methyl cellulose, read-out: lethal dose (LD50) for oral administration
Outline: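 Six-week-old SPF SD rats, two per group, received compounds orally as suspensions in 0.5% methyl cellulose. Endpoints were clinical signs, body weight, mortality, haematology, serum biochemistry and macroscopic necropsy of organs and tissues.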

cortical neuron cells = assay: Protective effect on iron-induced neuronal cell injury (LDH release); assay type: cell-based; conditions: FeSO4 50 μM; for protective effect on neuron cell: Inhibition (%, 30 μM compound addition): LDH reduction vs control; for IC50: LDH
Outline: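 Embryonic (day 17–18) cortical neurons cultured 7–9 days, serum lowered to 0.2%, pretreated 30 min with compound (DMSO ≤0.1%), then exposed to 50 μM FeSO4 for 24 h. LDH released to medium measured; protection expressed as LDH reduction versus vehicle control.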

brain homogenate = assay: Inhibitory effect against lipid peroxidation by iron (MDA quantification); assay type: biochemical, rat; conditions: 100 μM compound, FeCl2 400 μM, 37° C. 30 min
Method: The rat brain was homogenized in a Krebs buffer (15 mM HEPES, 10 mM glucose, 140 mM NaCl, 3.6 mM KCl, 1.5 mM CaCl2, 1.4 mM KH2PO4, 0.7 mM MgCl2, PH 7.4) and the supernatant separated by centrifugation at 12,000 rpm for 10 min was used for further experiments. FeCl2 was added for the final concentration to be 400 μM. Then the brain homogenate was allowed to stand at 37° C. for 30 min for the facilitation of oxidation. Each of the test compounds was added at a concentration of 100 μM. For control group, only vehicle was applied.
Iron facilitates the oxidation of the said brain homogenate to produce malondialdehyde (MDA), lipid peroxidation product. Thus, the lipid peroxidation was determined by MDA quantification. The inhibitory effect against lipid peroxidation of the test compounds was evaluated by calculating MDA reduction rate of the test compounds compared with that of the control group.
Typically, the MDA quantification is achieved by reacting samples with 2-thiobarbituric acid (TBA) and measuring the absorbance at 530 nm. However, this method is unsuitable to treat samples on a large scale because of a boiling step. Thus, in this experiment, N-methyl-2-phenylindole was used instead of TBA.

isolated rat aorta = assay: Vasodilating effect on blood vessel excised from rats (methoxamine-constricted aorta); conditions: isolated rat aorta constricted with methoxamine (3 μM); read-out: Concentration for inhibition of constriction induced by methoxamine in rat arota (IC50)
Outline: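 Endothelium-denuded rat thoracic aortic rings (3 mm) in Krebs-Henseleit buffer, 37 °C, carbogen, 2 g resting tension, primed twice with 10^−5 M phenylephrine. After maximal contraction with 3×10^−6 M methoxamine, compounds added cumulatively at 1, 3, 10, 30 μM. IC50 = concentration giving 50% relaxation of maximal constriction, by linear regression.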

SMILES	inhibition at 30 µM (RAW 264.7 cells)	EDP (mmHg) [1]	LDH (u/g) [1]	LVDP X HR (%) [1]	TTC [1]	LD50 [2]	protective effect on neuron cell: Inhibition (%, 30 μM compound addition) (cortical neuron cells; 24 hours)	IC50 (cortical neuron cells; Cortical neurone, 24 h)	IC50 (cortical neuron cells; 24 hours)	inhibitory effect against lipid peroxidation induced by iron (%, 100 μM) (brain homogenate)	IC50 (isolated rat aorta)
COC(OC)[C@@]1(C)Oc2ccc([N+](=O)[O-])cc2[C@H](N(Cc2nnn(C)n2)c2ccccc2Cl)[C@H]1O [Example 29, (2S,3R,4S)-6-nitro-4-[N-(2-chlorophenyl)-N-(2-methyl-2H-tetrazol-5-ylmethyl)amino]-3-hydroxy-2-methyl-2-dimethoxymethyl-3,4-dihydro-2H-1-benzopyran]	> 75%										
COC(OC)[C@@]1(C)Oc2ccc(N)cc2[C@H](N(Cc2nnn(C)n2)c2ccc(OC(F)(F)F)cc2)[C@H]1O [Example 32, (2S,3R,4S)-6-amino-4-[N-(4-trifluoromethoxyphenyl)-N-(2-methyl-2H-tetrazol-5-ylmethyl)amino]-3-hydroxy-2-methyl-2-dimethoxymethyl-3,4-dihydro-2H-1-benzopyran]		17.0 mmHg	15.7 u/g	64.7%	27.9 min	> 2000 mg/kg	108%	< 2000 nM	1600 nM	89%	> 30000 nM
COC(OC)[C@@]1(C)Oc2ccc([N+](=O)[O-])cc2[C@H](N(Cc2nnn(C)n2)c2ccc(C)cc2C)[C@H]1O [Example 45, (2S,3R,4S)-6-nitro-4-[N-(2,4-dimethylphenyl)-N-(2-methyl-2H-tetrazol-5-ylmethyl)amino]-3-hydroxy-2-methyl-2-dimethoxymethyl-3,4-dihydro-2H-1-benzopyran]	> 75%										
COC(OC)[C@@]1(C)Oc2ccc([N+](=O)[O-])cc2[C@H](N(Cc2nnn(C)n2)c2c(C)cccc2C)[C@H]1O [Example 47, (2S,3R,4S)-6-nitro-4-[N-(2,6-dimethylphenyl)-N-(2-methyl-2H-tetrazol-5-ylmethyl)amino]-3-hydroxy-2-methyl-2-dimethoxymethyl-3,4-dihydro-2H-1-benzopyran]	62%										
COC(OC)[C@@]1(C)Oc2ccc([N+](=O)[O-])cc2[C@H](N(Cc2nnn(C)n2)c2ccccc2C(C)C)[C@H]1O [Example 51, (2S,3R,4S)-6-nitro-4-[N-(2-isopropylphenyl)-N-(2-methyl-2H-tetrazol-5-ylmethyl)amino]-3-hydroxy-2-methyl-2-dimethoxymethyl-3,4-dihydro-2H-1-benzopyran]	> 90%										
COC(=O)c1cccc(N(Cc2nnn(C)n2)[C@H]2c3cc([N+](=O)[O-])ccc3O[C@](C)(C(OC)OC)[C@@H]2O)c1 [Example 58, (2S,3R,4S)-6-nitro-4-[N-(3-methoxycarbonylphenyl)-N-(2-methyl-2H-tetrazol-5-ylmethyl)amino]-3-hydroxy-2-methyl-2-dimethoxymethyl-3,4-dihydro-2H-1-benzopyran]	> 75%										
COC(OC)[C@@]1(C)Oc2ccc(N)cc2[C@H](N(Cc2nnn(C)n2)c2ccccc2O)[C@H]1O [Example 61, (2S,3R,4S)-6-amino-4-[N-(2-hydroxyphenyl)-N-(2-methyl-2H-tetrazol-5-ylmethyl)amino]-3-hydroxy-2-methyl-2-dimethoxymethyl-3,4-dihydro-2H-1-benzopyran]		23.0 mmHg	22.4 u/g	52.7%	20.0 min	> 2000 mg/kg	89%	< 2000 nM	1200 nM	87%	> 30000 nM
COC(=O)c1ccc(C)c(N(Cc2nnn(C)n2)[C@H]2c3cc([N+](=O)[O-])ccc3O[C@](C)(C(OC)OC)[C@@H]2O)c1 [Example 68, (2S,3R,4S)-6-nitro-4-[N-(2-methyl-5-methoxycarbonylphenyl)-N-(2-methyl-2H-tetrazol-5-ylmethyl)amino]-3-hydroxy-2-methyl-2-dimethoxymethyl-3,4-dihydro-2H-1-benzopyran]	64%										
COC(OC)[C@@]1(C)Oc2ccc([N+](=O)[O-])cc2[C@H](N(Cc2nnn(C)n2)c2cc(C)ccc2O)[C@H]1O [Example 70, (2S,3R,4S)-6-nitro-4-[N-(2-hydroxy-5-methylphenyl)-N-(2-methyl-2H-tetrazol-5-ylmethyl)amino]-3-hydroxy-2-methyl-2-dimethoxymethyl-3,4-dihydro-2H-1-benzopyran]	> 75%	37.0 mmHg	18.4 u/g	31.9%	22.0 min	> 2000 mg/kg	85%	< 2000 nM	1400 nM		> 30000 nM
COC(OC)[C@@]1(C)Oc2ccc(N)cc2[C@@H](N(Cc2nnn(C)n2)c2ccc(OC(F)(F)F)cc2)[C@@H]1O [Example 81, (2S,3S,4R)-6-amino-4-[N-(4-trifluoromethoxyphenyl)-N-(2-methyl-2H-tetrazol-5-ylmethyl)amino]-3-hydroxy-2-methyl-2-dimethoxymethyl-3,4-dihydro-2H-1-benzopyran]						> 2000 mg/kg	120%	< 2000 nM	1500 nM	89%	> 30000 nM
